According to patent US5919785A, “Inhibitors of farnesyl-protein transferase” (Merck & Co., Inc., priority 1997, dated 1999):
Where a name gives a salt, the structure may show the parent alone. Read-outs that look alike come from different tables or passages of the source.

Target: T1, human FPTase (Homo sapiens, UniProt P49354+P49356)
T1 construct: made in house
Assay: In vitro inhibition of ras farnesyl transferase (human FPTase assay)
Assay type: biochemical
Description: Assays of farnesyl-protein transferase. […] Reactions were initiated with FPTase and stopped with 1 ml of 1.0 M HCL in ethanol. Precipitates were collected onto filter-mats using a TomTec Mach HI cell harvester, washed with 100% ethanol, dried and counted in an LKB β-plate counter. […] Purified compounds were dissolved in 100% dimethyl sulfoxide (DMSO) and were diluted 20-fold into the assay. Percentage inhibition is measured by the amount of incorporation of radioactivity in the presence of the test compound when compared to the amount of incorporation in the absence of the test compound. […] Human FPTase activity was assayed as described above with the exception that 0.1% (w/v) polyethylene glycol 20,000, 10 μM ZnCl2 and 100 nM Ras-CVIM were added to the reaction mixture. Reactions were performed for 30 min., stopped with 100 μl of 30% (v/v) trichloroacetic acid (TCA) in ethanol and processed as described above for the bovine enzyme.

| IC50 (human FPTase, [3H]-FPP, 100 nM Ras-CVIM, 30 min, read-out: IC50, inhibitory activity against human FPTase) | SMILES | IC50 |
| --- | --- | --- |
| – | N#Cc1ccc(Cn2cncc2CN2CC(=O)N(c3ccccc3)CC2=O)cc1 [Example 4, 4-[1-(4-cyanobenzyl)-5-imidazolylmethyl]-1-phenylpiperazine-2,5-dione hydrochloride] | ≤ 50 µM |
| ≤ 50 µM | N#Cc1ccc(Cn2cncc2CN2CC(=O)N(Cc3ccccc3)CC2=O)cc1 [Example 5, 4-benzyl-1-[1-(4-cyanobenzyl)-5-imidazolylmethyl]-piperazine-2,5-dione hydrochloride] | – |
